Reference: patent US11066455B2, “Tmem100 peptides and variants thereof and their use in treating or preventing diseases or conditions” (The Johns Hopkins University, priority 2014, dated 2021)
* marks the point of attachment. Myristoyl = CCCCCCCCCCCCCC(=O)*

Tests used:
[1] = test system: MO-induced pain in wild-type mice; test: Mustard oil injection in hindpaw: acute nocifensive behavior and von Frey mechanical hyperalgesia; type: in vivo, mouse
Description: Mice were placed in a transparent plastic box (4.5×5×10 cm) on a metal mesh and acclimatized for 30 minutes prior to testing. Each mouse was tested more than 5 times at a specific force manually, and the threshold was determined by the lowest force needed to elicit responses more than 50% of the time.
Mice were injected intradermally in the hind paw with 6 μL of 0.2% mustard oil (Sigma-Aldrich 377430) with Hamilton needles (80300). The mice were placed in a plexiglass cylinder, and the total time spent licking and flinching was recorded for the first 10 minutes after injection. Thirty and sixty minutes after injection, the mice were assayed with von Frey filaments for mechanical hyperalgesia.
The sequence from the last 28 amino acids of the C-terminus of the Tmem100-3Q mutant protein was synthesized and myristoylated at its N-terminus (myr-[…]-COOH) (SEQ ID NO: 8) by Twentyfirst Century Biochemicals. […] For the calcium imaging assay, the peptides were added to the calcium imaging buffer with a final concentration of 200 nM and incubated for at least […] at room temperature. For the mice behavioral assays, the peptides (5 μL, 2 mM) were injected subcutaneously in the hindpaw at least 30 minutes before testing. For the rat behavior assays, human T100-3Q (h-T100), a palmitoylated cell permeable peptide mutated based on the C terminus of human sequence in Tmem100, was applied. […]

[2] = test system: T1, TRPA1; test: MO-gated whole-cell voltage clamp in CHO cells expressing TRPA1+TRPV1; type: cell-based; conditions: Vh=-60 mV; TRPA1+TRPV1+Tmem100-3Q (1:1:4) CHO cells
T1 construct: MO (10 μM)-evoked Ca2+ influx; other: TRPA1+TRPV1+Tmem100-3Q (1:1:4) CHO cells; MO (10 μM)-gated whole-cell current density; other: Vh=-60 mV; TRPA1+TRPV1+Tmem100-3Q (1:1:4) CHO cells; MO (10 μM)-induced single-channel activity (NPo); co-expressed with TRPA1+TRPV1 (1:1:4) in CHO cells
Description: Recordings were made in cell-attached single-channel or whole-cell voltage clamp configurations at 22-24° C. from the somata of small-to-medium mouse DRG neurons (15-35 pF) or CHO cells. For whole-cell configuration, holding potential (Vh) is −60 mV. Data were acquired and analyzed using an Axopatch 200B amplifier and pCLAMP9.0 software (Molecular Devices, Sunnyvale, Calif.). Borosilicate pipettes (Sutter, Novato, Calif.) were pulled and polished to resistances of 3-5 MΩ (in whole-cell and single-channel pipette solutions). Access resistance (Rs) was compensated (40-80%) when appropriate up to the value 7-10 MΩ for whole-cell configuration. Whole-cell recording data were filtered at 0.5 kHz and sampled at 2 kHz. Single-channels currents were filtered with an 8-pole, low pass Bessel filter at 0.1 kHz and sampled at 0.5 kHz, since dwelling time (τ) of the TRPA1 and TRPV1 single-currents were >0.5 sec. Whole-cell recorded data were rejected when Rs changed >20% during recording, leak currents were >100 pA, or input resistance was <200 MΩ.
Standard external solution (SES) for whole-cell patch recording contained (in mM): 140 NaCl, 5 KCl, 2 CaCl2, 1 MgCl2, 10 D-glucose and 10 HEPES, pH 7.4. Vehicle, which is 0.01% DMSO, was added to external solutions. […] The baseline activities of the cells were recorded for 1-2 min prior drug applications. […]

myr-QRVLEQVLQNWSRRANVKQAQKFQVKCT-COOH (Myristoyl-QRVLEQVLQNWSRRANVKQAQKFQVKCT-OH; SMILES CCCCCCCCCCCCCC(=O)N[C@@H](CCC(N)=O)C(=O)N[C@@H](CCCNC(=N)N)C(=O)N[C@H](C(=O)N[C@@H](CC(C)C)C(=O)N[C@@H](CCC(=O)O)C(=O)N[C@@H](CCC(N)=O)C(=O)N[C@H](C(=O)N[C@@H](CC(C)C)C(=O)N[C@@H](CCC(N)=O)C(=O)N[C@@H](CC(N)=O)C(=O)N[C@@H](Cc1c[nH]c2ccccc12)C(=O)N[C@@H](CO)C(=O)N[C@@H](CCCNC(=N)N)C(=O)N[C@@H](CCCNC(=N)N)C(=O)N[C@@H](C)C(=O)N[C@@H](CC(N)=O)C(=O)N[C@H](C(=O)N[C@@H](CCCCN)C(=O)N[C@@H](CCC(N)=O)C(=O)N[C@@H](C)C(=O)N[C@@H](CCC(N)=O)C(=O)N[C@@H](CCCCN)C(=O)N[C@@H](Cc1ccccc1)C(=O)N[C@@H](CCC(N)=O)C(=O)N[C@H](C(=O)N[C@@H](CCCCN)C(=O)N[C@@H](CS)C(=O)N[C@H](C(=O)O)[C@@H](C)O)C(C)C)C(C)C)C(C)C)C(C)C) [scrambled]
MO-induced mechanical hyperalgesia (mechanical threshold) ([1]; peptide 5 μl of 2 mM pre-treatment): 0.1 ± 0.03 g | MO-induced acute nocifensive behavior (time) ([1]; peptide 5 μl of 2 mM pre-treatment in hindpaw): 80 ± 9 s

B1: Tmem100-3Q mutant (full-length, mouse) (protein)
chain: MTEESTKENLGAPKSPTPVTMEKNPKREVVVTTGPLVSEVQLMAATGGAELSCYRCIIPFAVVVFITGIVVTAVAYSFNSHGSIISIFGLVLLSSGLFLLASSALCWKVRQRNKKVQQQESQTALVVNQRCLFA
MO (10 μM)-gated whole-cell current density [2]: 39.16±12.5 pA/pF
